Type in all cases: biochemical
In data set [1] the test system is murine DNA 5-C-MTase. In words: Methylation assay: methyl transfer from [methyl-3H]AdoMet to ODNs by DNA methyltransferase from Friend erythroleukemia cell nuclei. As to the method:
The phosphoramidite of 5-fluorodeoxycytidine (5FdC) and unmodified 5-methyl deoxycytosine (5MdC) and 5FC-containing ODNs were synthesized and purified as described in Marasco, C. J. et al., J. Org. […] 5MdC phosphoramidite is commercially available. ss ODNs were heated to 90° C. for 10 min and quickly chilled on ice immediately prior to assay. […] For ds ODNs, an equimolar mixture of complementary ODNs was heated to 90° C. for 10 min and slowly cooled to room temperature.
Preparation of Murine DNA 5-C-MTase. The DNA 5-C-MTase used in these studies was the 100,000×g supernatant of a 0.3M NaCl extract of Friend erythroleukemia cell nuclei.
Methylation Assay. Reaction mixtures (50 μl ) in 0.1M imidazole, pH 7.4/20 mM EDTA/0.5 mM dithiothreitol contained 0.5 μg of each ODN indicated, ≈0.6 units of DNA 5-C-MTase (1 unit transfers 1 pmol to A (AS)·A'Mp (M1) per min; see Table 7), and 2.8 μCi (1 Ci=37 GBq) of [methyl-^3 H]AdoMet (AdoMet=S-adenosylmethionine) (8 μM). […] For accuracy, methylation rates <5 pmol/30 min were measured in quadrupled reaction mixtures (200 μl ). After incubation for 30 min at 37° C., ODNs were processed for quantitation of radiolabel as described (20) with 25 μg of salmon sperm DNA added as carrier prior to perchloric acid precipitation.
All assays were performed in duplicate.

For data set [2], the system named is bacterial SssI methyltransferase. The experiment in a line: DNA methylase substrate activity with bacterial SssI enzyme preparation. The source says:
(§1) They are labeled Sense (S), Antisense (AS), Methylated Antisense 1 (M1) and Methylated Antisense 2 (M2). […] This property of M2 provides an approach to accurately monitoring levels of DNA methyltransferase activity in clinically obtained tissue samples that might otherwise be contaminated by bacteria, since bacterial DNA methyltransferase activity would be excluded as a component of this measurement.
RESULTS ARE AVERAGE OF 2 EXPTS. BACTERIAL SSS1 ENZYME PREPARATION. ASSAYE

The test system of data set [3] is bacterial DNA methyltransferases. The experiment in a line: Methylation by bacterial DNA methyltransferases that require double stranded DNA.
Excerpt: as §1

The test system of data set [4] is murine DNA 5-C-MTase. The experiment in a line: Methylation assay: methyl transfer from [methyl-3H]AdoMet to ODNs by DNA methyltransferase from Friend erythroleukemia cell nuclei. To be noted: Table 2; enzyme preparation from Friend leukemia cells; 1 μg oligomer; average of 2 expts; background 2691.

Turning to “5' ATTGCGNATTNCGGATNCGCGATC 3' (5-methylcytosine at 7, 11, 17, further chemistry not given here) [M2, AS with 5-methylcytosine (N) at 7, 11, 17 (non-CpG sites)]”, the “substrate activity for mammalian DNA methyltransferase (in words)” value in data set [1] is on record as “exceptional substrate activity”. The “DNA METHYLASE (FL) SUBSTRATE ACTIVITY, ACTIVITY (CPM)” value in data set [1] (Table 4, single and double stranded constructs, average of 2 expts, background 1813) was 157027 CPM. Further, the “RATE (rate of methylation relative to A)” value in data set [1] (Table 9, ss ODNs with 5MeC substituted for C at the sites given) came to 130; in data set [1] (Table 10, ss ODNs with 5 mC and 5 FC substitutions), 128. In data set [2], the “substrate activity for bacterial SssI methyltransferase (in words)” value was “only moderate activity as a substrate”. In addition, the “DNA METHYLASE SUBSTRATE ACTIVITY, ACTIVITY (CPM)” value in data set [2] (Table 3, bacterial SssI enzyme preparation, 0.25 μg oligomer, average of 2 expts, background 1351) turned out to be 51047 CPM; in data set [4], 882284 CPM. The “methylation by most bacterial DNA methyltransferases (in words)” value in data set [3] is “not methylated”.

For the origin of these results see US5652105A, “Substrate for detection of mammalian 5-C-DNA methyltransferase” (Health Research, Inc., priority 1995, dated 1997).
